Test results taken from US5830871A, “Inhibitors of E-, P- and L-selectin binding” (The Scripps Research Institute, priority 1996, dated 1998).

Assays:
[1] = tested on: adhesion of neutophils to endothelial cells; settings: cited from earlier work
lung injury in rats = settings: in vivo, read-out: IC50 value in vivo for protecting against lung injury; cited from earlier work
[2] = cited from earlier work
E-selectin [3] = settings: cited from earlier work
E-selectin [4] = target: T1, E-selectin (Homo sapiens, UniProt P16581); assay: Inhibition of SLe^x glycoconjugate / HL-60 cell binding to immobilized sol-E-selectin
T1 construct: A 1.67 kbp DNA fragment encoding a truncated structural gene for E-selectin; made in house
T1 sequence (P16581 22-556 limits assumed): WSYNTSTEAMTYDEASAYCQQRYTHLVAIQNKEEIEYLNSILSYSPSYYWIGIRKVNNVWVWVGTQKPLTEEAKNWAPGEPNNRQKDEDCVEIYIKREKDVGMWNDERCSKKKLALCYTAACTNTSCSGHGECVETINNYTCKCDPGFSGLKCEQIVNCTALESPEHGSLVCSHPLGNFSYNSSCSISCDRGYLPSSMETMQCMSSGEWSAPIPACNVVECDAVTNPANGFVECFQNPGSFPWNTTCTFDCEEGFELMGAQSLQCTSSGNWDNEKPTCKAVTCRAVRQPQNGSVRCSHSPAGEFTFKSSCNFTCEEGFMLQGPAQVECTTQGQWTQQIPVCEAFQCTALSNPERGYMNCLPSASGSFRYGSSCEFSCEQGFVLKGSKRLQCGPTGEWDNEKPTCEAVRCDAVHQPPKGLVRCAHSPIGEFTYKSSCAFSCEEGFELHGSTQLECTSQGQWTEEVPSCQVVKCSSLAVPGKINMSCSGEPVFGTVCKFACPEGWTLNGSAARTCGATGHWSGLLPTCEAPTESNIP
Protocol: Analysis of compound 6 (class II compound; FIG. 1) as an inhibitor of SLe^x glycoconjugate binding to E-selectin provides an IC50 value of 0.8 mM, according to the method of S. A. DeFrees, et al., viz. J. Am. Chem. Soc. 1995, 117, 66.
A soluble form of E-selectin (sol-E-selectin) was prepared for inhibition assays of the SLe^x Mimetics. A 1.67 kbp DNA fragment encoding a truncated structural gene for E-selectin was isolated by PCR amplification of CDNA derived from messenger RNA that was isolated from IL-1 activated human endothelial cells. The CDNA was subcloned into the vector pBluescript II and was transfected into 293 cells. The clones were screened for the production of sol-E-selectin, and the clone 293#3 was selected as the stable cell line that produced the greatest amount of sol-E-selectin per cell. Sol-E-selectin was produced on a large scale from this line using a Nunc cell factory. Recombinant sol-E-selectin was isolated from the media using immunoaffinity chromatography.
The SLe^x Mimetics were assayed for ability to block the adhesion of HL-60 cells to immobilized sol-E-selectins (either on a polymeric column solid support or onto the surface of the assay vessle). Immobilized E-selectin was incubated first with inhibitor and then with HL-60 cells. The bound cells were lysed, and myeloperoxidase released from the bound cells was detected with o-phenylenediamine and hydrogen peroxide. The percentage inhibition was determined by comparing the absorbance of the resulting solution at 492 nm to that in wells containing no inhibitor.
Each data point in the E-selectin assay is a direct measure of cells bound using a quantitative enzyme assay. The values were then plotted to give the titration curve and IC50 values. On average, five assays were performed for each inhibitor, and the results were highly reproducible. […] The IC50 values reported here is derived from all the data. Procedure described herein is adopted from Wong et. al. J. Am. Chem. Soc. 1995, 177, 66-79.

E-selectin [5] = settings: in vitro; cited from earlier work
[6] = tested on: neutrophil/P-selection-dependent rat model; settings: cited from earlier work; for lung injury / tissue accumulation of neutrophils: intravenous infusion of up to 200 μg, cobra venom
[7] = blood stream; glycosidase; cited from earlier work
L-selectin = assay: Inhibition of L-selectin; type: binding
P-selectin = assay: Inhibition of P-selectin; type: binding

Compound | adhesion of neutrophils to endothelial cells [1] | IC50 (lung injury in rats) [nM] | oral activity [2] | SLe^x/E-selectin interaction (E-selectin [3]) | IC50 (E-selectin [4]) [µM] | affinity for E-selectin (E-selectin [5]) | effective intravenous concentration ([6]; calculated from concentrations used, 200 μg) | lung injury [6] | tissue accumulation of neutrophils [6] | stability in the blood [7] | inhibition of L-selectin (L-selectin; @ 3 mM) [%] | L-selectin inhibition activity compared with sialyl Lewis X (L-selectin; compared with sialyl lewis X) | inhibition of P-selectin (P-selectin; @ 3 mM) [%] | P-selectin inhibition activity compared with sialyl Lewis X (P-selectin; compared with sialyl lewis X) | biological activity compared with SLe^x (E-selectin [4]; compared with SLe^x (0.50 mM))
CC(=O)NC1C(O)CC(OC2C(O)C(CO)OC(OC3C(CO)OC(O)C(NC(C)=O)C3OC3OC(C)C(O)C(O)C3O)C2O)(C(=O)O)OC1C(O)C(O)CO (stereo not drawn) [SLe^x, NeuAcα2→3Galβ1→4(Fucα1→3GlcNAc] | blocks adhesion of neutophils to endothelial cells | ~1000 | orally inactive | inhibits the SLe^x /E-selectin interaction | 500 | relatively weak | less than 1 μM | dramatically reduced lung injury | diminished tissue accumulation of neutrophils | unstable in the blood stream |  |  |  |  | 
NeuAcα2→3Galβ1→4(Fucα1→3)GlcNAcβ1, 3Galβ- [pentamer] |  |  |  |  |  |  |  | dramatically reduced lung injury | diminished tissue accumulation of neutrophils |  |  |  |  |  | 
O=C(COP(=O)(O)O)[C@@H](O)[C@H](O)C[C@H]1O[C@H](CO)[C@@H](O)[C@H](O)[C@@H]1O [Compound 6] |  |  |  |  | 800 |  |  |  |  |  | > 80 | better or equal to that of sialyl lewis X | > 80 | better or equal to that of sialyl lewis X | almost the same biological activity as SLe^x
